Numbers after ± are expanded uncertainties.
Key:
[1] = xn = mol fraction of the nth substance listed; details: 298.15 K, 101 kPa, Liquid, Vibrating tube method
[2] = refractive index (Na D-line) (dimensionless); xn = mol fraction of the nth substance listed; details: 298.15 K, 101 kPa, Liquid, Standard Abbe refractometry
[3] = Liquid; for mass density: 298.15 K, 101.33 kPa, Vibrating tube method; for vapor or sublimation pressure: Ebulliometric method (Recirculating still)
[4] = refractive index (Na D-line) (dimensionless); details: 298.15 K; 101.33 kPa; Liquid; Standard Abbe refractometry
[5] = Boiling temperature at pressure P; details: Liquid, Ebulliometric method (Recirculating still)

COC(=O)Oc1ccccc1 [methyl phenyl carbonate] + CO
mass density ([1]; x1 = 0.0501): 842.07 ± 0.2 kg/m3
mass density ([1]; x1 = 0.1001): 886.48 ± 0.17 kg/m3
mass density ([1]; x1 = 0.2002): 953.27 ± 0.13 kg/m3
mass density ([1]; x1 = 0.3002): 1000.92 ± 0.09 kg/m3
mass density ([1]; x1 = 0.4003): 1036.71 ± 0.09 kg/m3
mass density ([1]; x1 = 0.5): 1064.49 ± 0.09 kg/m3
mass density ([1]; x1 = 0.6013): 1087.16 ± 0.1 kg/m3
mass density ([1]; x1 = 0.7008): 1105.28 ± 0.11 kg/m3
mass density ([1]; x1 = 0.8003): 1120.25 ± 0.12 kg/m3
mass density ([1]; x1 = 0.9015): 1133.12 ± 0.13 kg/m3
mass density ([1]; x1 = 0.9471): 1138.14 ± 0.14 kg/m3
refractive index ([2]; x1 = 0.0501): 1.3647 ± 0.0004
refractive index ([2]; x1 = 0.1001): 1.3885 ± 0.0004
refractive index ([2]; x1 = 0.2002): 1.4283 ± 0.0004
refractive index ([2]; x1 = 0.3002): 1.45 ± 0.0004
refractive index ([2]; x1 = 0.4003): 1.467 ± 0.0004
refractive index ([2]; x1 = 0.5): 1.4748 ± 0.0004
refractive index ([2]; x1 = 0.6013): 1.4801 ± 0.0004
refractive index ([2]; x1 = 0.7008): 1.4848 ± 0.0004
refractive index ([2]; x1 = 0.8003): 1.4877 ± 0.0004
refractive index ([2]; x1 = 0.9015): 1.4915 ± 0.0004
refractive index ([2]; x1 = 0.9471): 1.4929 ± 0.0004

COC(=O)Oc1ccccc1 [methyl phenyl carbonate]
mass density [3]: 1143.63 ± 0.15 kg/m3
refractive index [4]: 1.4948 ± 0.0004
Boiling temperature at pressure P ([5]; 3 kPa): 105.66 ± 1.8 °C
Boiling temperature at pressure P ([5]; 5 kPa): 118.02 ± 1.2 °C
Boiling temperature at pressure P ([5]; 10 kPa): 136.72 ± 0.86 °C
Boiling temperature at pressure P ([5]; 15 kPa): 148.41 ± 0.58 °C
Boiling temperature at pressure P ([5]; 20 kPa): 157.08 ± 0.45 °C
Boiling temperature at pressure P ([5]; 25 kPa): 164.10 ± 0.37 °C
Boiling temperature at pressure P ([5]; 30 kPa): 170.01 ± 0.31 °C
Boiling temperature at pressure P ([5]; 35 kPa): 174.97 ± 0.27 °C
Boiling temperature at pressure P ([5]; 40 kPa): 179.58 ± 0.25 °C
Boiling temperature at pressure P ([5]; 45 kPa): 183.76 ± 0.23 °C
Boiling temperature at pressure P ([5]; 50 kPa): 187.52 ± 0.21 °C
Boiling temperature at pressure P ([5]; 55 kPa): 190.94 ± 0.19 °C
Boiling temperature at pressure P ([5]; 60 kPa): 194.06 ± 0.18 °C
Boiling temperature at pressure P ([5]; 65 kPa): 197.11 ± 0.17 °C
Boiling temperature at pressure P ([5]; 70 kPa): 199.87 ± 0.15 °C
Boiling temperature at pressure P ([5]; 75 kPa): 202.31 ± 0.15 °C
Boiling temperature at pressure P ([5]; 80 kPa): 204.76 ± 0.15 °C
Boiling temperature at pressure P ([5]; 85 kPa): 207.20 ± 0.14 °C
Boiling temperature at pressure P ([5]; 90 kPa): 209.54 ± 0.14 °C
Boiling temperature at pressure P ([5]; 95 kPa): 211.70 ± 0.12 °C
Boiling temperature at pressure P ([5]; 100 kPa): 213.56 ± 0.12 °C
Boiling temperature at pressure P ([5]; 101.3 kPa): 214.33 ± 0.14 °C
Boiling temperature at pressure P ([5]; 102.1 kPa): 214.51 ± 0.08 °C

COC(=O)Oc1ccccc1 [methyl phenyl carbonate] + COC(=O)OC
mass density ([1]; x1 = 0.0499): 1069.88 ± 0.07 kg/m3
mass density ([1]; x1 = 0.1): 1076.1 ± 0.07 kg/m3
mass density ([1]; x1 = 0.2001): 1087.37 ± 0.08 kg/m3
mass density ([1]; x1 = 0.2999): 1097.32 ± 0.08 kg/m3
mass density ([1]; x1 = 0.4): 1106.17 ± 0.09 kg/m3
mass density ([1]; x1 = 0.5002): 1114.08 ± 0.09 kg/m3
mass density ([1]; x1 = 0.6): 1121.17 ± 0.1 kg/m3
mass density ([1]; x1 = 0.7007): 1127.6 ± 0.11 kg/m3
mass density ([1]; x1 = 0.8003): 1133.42 ± 0.12 kg/m3
mass density ([1]; x1 = 0.8991): 1138.71 ± 0.13 kg/m3
mass density ([1]; x1 = 0.9493): 1141.22 ± 0.14 kg/m3
refractive index ([2]; x1 = 0.0499): 1.3764 ± 0.0004
refractive index ([2]; x1 = 0.1): 1.3863 ± 0.0004
refractive index ([2]; x1 = 0.2001): 1.4038 ± 0.0004
refractive index ([2]; x1 = 0.2999): 1.419 ± 0.0004
refractive index ([2]; x1 = 0.4): 1.4336 ± 0.0004
refractive index ([2]; x1 = 0.5002): 1.4463 ± 0.0004
refractive index ([2]; x1 = 0.6): 1.4575 ± 0.0004
refractive index ([2]; x1 = 0.7007): 1.468 ± 0.0004
refractive index ([2]; x1 = 0.8003): 1.4774 ± 0.0004
refractive index ([2]; x1 = 0.8991): 1.4853 ± 0.0004
refractive index ([2]; x1 = 0.9493): 1.4901 ± 0.0004

COC(=O)OC [dimethyl carbonate]
mass density [3]: 1063.26 ± 0.06 kg/m3
vapor or sublimation pressure ([3]; 363.25 K): 101.3 ± 0.3 kPa
refractive index [4]: 1.3666 ± 0.0004

CO [methanol]
mass density [3]: 786.69 ± 0.12 kg/m3
vapor or sublimation pressure ([3]; 338.12 K): 101.3 ± 0.3 kPa
refractive index [4]: 1.3267 ± 0.0004
